Peptide text beside a SMILES is read from it.
Columns and labels:
Type in all cases: cell-based
[1] = system: Erwinia amylovora PMV6076; experiment: Antibacterial activity (MIC), growth inhibition in microtiter plates; conditions: Trypticase Soy Broth, 25 °C, 48 h, OD 600 nm (Bioscreen C), peptides at 3.1, 6.2, 12.5, 25, 50 μM, three replicates, experiment repeated twice, MIC = lowest concentration with no growth
Description: (§1) The antibacterial activity of the designed cyclic peptides was assayed against P. syringae pv. syringae, X. axonopodis pv. vesicatoria, and E. amylovora at 3.1, 6.2, 12.5, 25, and 50 μM. Peptides BPC194 and BPC198 were also included in these assays for comparison purposes.
(§2) The following plant pathogenic bacterial strains were used: Erwinia amylovora PMV6076 (Institut National de la Recherche Agronomique, Angers, France); Pseudomonas syringae pv. syringae EPS94 (Institut de Tecnologia Agroalimentària, Universitat de Girona, Spain); and Xanthomonas axonopodis pv. vesicatoria 2133-2 (Instituto Valenciano de Investigaciones Agrarias, Valencia, Spain). All bacteria were stored in Luria Bertani (LB) broth supplemented with glycerol (20%) and maintained at –80 °C. E. amylovora and P. syringae pv. syringae were scrapped from LB agar after growing for 24 h and X. axonopodis pv. vesicatoria after growing for 48 h at 25 °C. The cell material was suspended in sterile water to obtain a suspension of 10^8 CFU mL^−1.
(§3) Lyophilized peptides were solubilized in sterile Milli-Q water to a final concentration of 1000 μM and sterilized through a 0.22-μm pore filter. For MIC assessment, dilutions of the synthetic peptides were made to obtain a final concentration of 500, 250, 125, 62.5, 31.2, and 15.6 μM. Twenty microlitres of each dilution were mixed in a microtiter plate well with 20 μL of the corresponding suspension of the bacterial indicator and 160 μL of Trypticase Soy Broth (TSB) (BioMèrieux, Craponne, France) to a total volume of 200 μL. Three replicates for each strain, peptide, and concentration were used. Positive controls contained water instead of peptide and negative controls contained peptides without bacterial suspension. Bacterial growth was automatically determined by an optical density measurement at 600 nm (Bioscreen C, Labsystem, Helsinki, Finland). Microplates were incubated at 25 °C with 20 s shaking before hourly absorbance measurements for 48 h. Each experiment was repeated twice. The MIC was taken as the lowest peptide concentration with no growth at the end of the experiment. The inhibition of growth (I) was calculated as a percentage of the positive control using the equation: I = 100 × [(AC − AS)/AC], where AC is the area under the curve of the control, and AS is the area under the curve of a given peptide concentration.

[2] = system: Pseudomonas syringae pv. syringae EPS94; conditions: 48 h
Description: as §1, §2, §3

[3] = system: Xanthomonas axonopodis pv. vesicatoria 2133-2; conditions: Trypticase Soy Broth, 25 °C, 48 h, OD 600 nm (Bioscreen C), peptides at 3.1, 6.2, 12.5, 25, 50 μM, three replicates, experiment repeated twice, MIC = lowest concentration with no growth
Description: as §1, §2, §3

| SMILES | MIC Intervals, Ea [1] | MIC Intervals, Pss [2] | MIC Intervals, Xav [3] |
| --- | --- | --- | --- |
| CC(C)C[C@@H]1NC(=O)[C@H](CCC(N)=O)NC(=O)[C@H](Cc2ccccc2)NC(=O)[C@H](CC(C)C)NC(=O)[C@H](CCCCN)NC(=O)[C@H](CCCCN)NC(=O)[C@H](CCCCN)NC(=O)[C@H](CCCCN)NC(=O)[C@H](CCCCN)NC(=O)[C@H](CCCCN)NC1=O [BPC486] (cyclo(FQLKKKKKKL)) | >50 µM | 12.5 to 25 µM | – |
| CC(C)C[C@@H]1NC(=O)[C@H](CCCCN)NC(=O)[C@H](CCCCN)NC(=O)[C@H](CCCCN)NC(=O)[C@H](Cc2ccccc2)NC(=O)[C@H](CCCCN)NC(=O)[C@H](CCC(N)=O)NC(=O)[C@H](CCCCN)NC(=O)[C@H](CCCCN)NC(=O)[C@H](CC(C)C)NC1=O [BPC920] (cyclo(FKKKLLKKQK)) | >50 µM | 12.5 to 25 µM | 25 to 50 µM |
| CC(C)C[C@@H]1NC(=O)[C@H](CCCCN)NC(=O)[C@H](CCC(N)=O)NC(=O)[C@H](CCCCN)NC(=O)[C@H](CCCCN)NC(=O)[C@H](CC(C)C)NC(=O)[C@H](Cc2ccccc2)NC(=O)[C@H](CCCCN)NC(=O)[C@H](CCCCN)NC(=O)[C@H](CCCCN)NC1=O [BPC914] (cyclo(FLKKQKLKKK)) | >50 µM | 12.5 to 25 µM | 12.5 to 25 µM |
| CC(C)C[C@@H]1NC(=O)[C@H](CCCCN)NC(=O)[C@H](CCCCN)NC(=O)[C@H](CCCCN)NC(=O)[C@H](CCCCN)NC(=O)[C@H](CC(C)C)NC(=O)[C@H](CCCCN)NC(=O)[C@H](Cc2ccccc2)NC(=O)[C@H](CCCCN)NC(=O)[C@H](CCC(N)=O)NC1=O [BPC922] (cyclo(FKLKKKKLQK)) | >50 µM | 12.5 to 25 µM | 12.5 to 25 µM |
| CC(C)C[C@@H]1NC(=O)[C@H](CCCCN)NC(=O)[C@H](CCCCN)NC(=O)[C@H](CCC(N)=O)NC(=O)[C@H](Cc2ccccc2)NC(=O)[C@H](CCCCN)NC(=O)[C@H](CCCCN)NC(=O)[C@H](CC(C)C)NC(=O)[C@H](CCCCN)NC(=O)[C@H](CCCCN)NC1=O [BPC490] (cyclo(FQKKLKKLKK)) | 12.5 to 25 µM | – | 3.1 to 6.2 µM |
| CC(C)C[C@@H]1NC(=O)[C@H](CCCCN)NC(=O)[C@H](CCCCN)NC(=O)[C@H](CCCCN)NC(=O)[C@H](Cc2ccccc2)NC(=O)[C@H](CC(C)C)NC(=O)[C@H](CCCCN)NC(=O)[C@H](CCCCN)NC(=O)[C@H](CCCCN)NC(=O)[C@H](CCC(N)=O)NC1=O [BPC480] (cyclo(FKKKLQKKKL)) | >50 µM | 12.5 to 25 µM | 12.5 to 25 µM |
| CC(C)C[C@@H]1NC(=O)[C@H](CCCCN)NC(=O)[C@H](CCCCN)NC(=O)[C@H](Cc2ccccc2)NC(=O)[C@H](CCCCN)NC(=O)[C@H](CCCCN)NC(=O)[C@H](CCCCN)NC(=O)[C@H](CC(C)C)NC(=O)[C@H](CCCCN)NC(=O)[C@H](CCC(N)=O)NC1=O [BPC198, c(KLKKKFKKLQ)] (cyclo(FKKLQKLKKK)) | 12.5 to 25 µM | 3.1 to 6.2 µM | 3.1 to 6.2 µM |
| CC(C)C[C@@H]1NC(=O)[C@H](CCCCN)NC(=O)[C@H](CCC(N)=O)NC(=O)[C@H](CC(C)C)NC(=O)[C@H](CCCCN)NC(=O)[C@H](Cc2ccccc2)NC(=O)[C@H](CCCCN)NC(=O)[C@H](CCCCN)NC(=O)[C@H](CCCCN)NC(=O)[C@H](CCCCN)NC1=O [BPC482] (cyclo(FKLQKLKKKK)) | >50 µM | – | 6.2 to 12.5 µM |
| CC(C)C[C@@H]1NC(=O)[C@H](CCCCN)NC(=O)[C@H](CCCCN)NC(=O)[C@H](CCCCN)NC(=O)[C@H](CCC(N)=O)NC(=O)[C@H](Cc2ccccc2)NC(=O)[C@H](CCCCN)NC(=O)[C@H](CCCCN)NC(=O)[C@H](CCCCN)NC(=O)[C@H](CC(C)C)NC1=O [BPC492] (cyclo(FQKKKLLKKK)) | >50 µM | 12.5 to 25 µM | 12.5 to 25 µM |
| CC(C)C[C@@H]1NC(=O)[C@H](CCCCN)NC(=O)[C@H](CCCCN)NC(=O)[C@H](CCCCN)NC(=O)[C@H](Cc2ccccc2)NC(=O)[C@H](CCCCN)NC(=O)[C@H](CCC(N)=O)NC(=O)[C@H](CC(C)C)NC(=O)[C@H](CCCCN)NC(=O)[C@H](CCCCN)NC1=O [BPC918] (cyclo(FKKKLKKLQK)) | 12.5 to 25 µM | – | 1.6 to 3.1 µM |
| CC(C)C[C@@H]1NC(=O)[C@H](CCCCN)NC(=O)[C@H](CCCCN)NC(=O)[C@H](CCC(N)=O)NC(=O)[C@H](CC(C)C)NC(=O)[C@H](CCCCN)NC(=O)[C@H](CCCCN)NC(=O)[C@H](Cc2ccccc2)NC(=O)[C@H](CCCCN)NC(=O)[C@H](CCCCN)NC1=O [BPC194, c(KKLKKFKKLQ)] (cyclo(FKKLQKKLKK)) | 6.2 to 12.5 µM | 3.1 to 6.2 µM | 3.1 to 6.2 µM |
| CC(C)C[C@@H]1NC(=O)[C@H](CCC(N)=O)NC(=O)[C@H](CCCCN)NC(=O)[C@H](CCCCN)NC(=O)[C@H](CC(C)C)NC(=O)[C@H](Cc2ccccc2)NC(=O)[C@H](CCCCN)NC(=O)[C@H](CCCCN)NC(=O)[C@H](CCCCN)NC(=O)[C@H](CCCCN)NC1=O [BPC494] (cyclo(FLKKQLKKKK)) | >50 µM | 6.2 to 12.5 µM | 6.2 to 12.5 µM |
| CC(C)C[C@@H]1NC(=O)[C@H](CCCCN)NC(=O)[C@H](CCCCN)NC(=O)[C@H](CCCCN)NC(=O)[C@H](CCCCN)NC(=O)[C@H](Cc2ccccc2)NC(=O)[C@H](CCCCN)NC(=O)[C@H](CC(C)C)NC(=O)[C@H](CCCCN)NC(=O)[C@H](CCC(N)=O)NC1=O [BPC916] (cyclo(FKKKKLQKLK)) | >50 µM | 6.2 to 12.5 µM | 12.5 to 25 µM |
| CC(C)C[C@@H]1NC(=O)[C@H](CCC(N)=O)NC(=O)[C@H](CC(C)C)NC(=O)[C@H](Cc2ccccc2)NC(=O)[C@H](CCCCN)NC(=O)[C@H](CCCCN)NC(=O)[C@H](CCCCN)NC(=O)[C@H](CCCCN)NC(=O)[C@H](CCCCN)NC(=O)[C@H](CCCCN)NC1=O [BPC484] (cyclo(FLQLKKKKKK)) | >50 µM | 12.5 to 25 µM | 25 to 50 µM |
| CC(C)C[C@@H]1NC(=O)[C@H](CCCCN)NC(=O)[C@H](CCCCN)NC(=O)[C@H](CCCCN)NC(=O)[C@H](CC(C)C)NC(=O)[C@H](CCCCN)NC(=O)[C@H](CCC(N)=O)NC(=O)[C@H](Cc2ccccc2)NC(=O)[C@H](CCCCN)NC(=O)[C@H](CCCCN)NC1=O [BPC924] (cyclo(FQKLKKKLKK)) | 12.5 to 25 µM | – | 1.6 to 3.1 µM |
| CC(C)C[C@@H]1NC(=O)[C@H](CCC(N)=O)NC(=O)[C@H](CC(C)C)NC(=O)[C@H](CCCCN)NC(=O)[C@H](CCCCN)NC(=O)[C@H](CCCCN)NC(=O)[C@H](CCCCN)NC(=O)[C@H](Cc2ccccc2)NC(=O)[C@H](CCCCN)NC(=O)[C@H](CCCCN)NC1=O [BPC496] (cyclo(FKKKKLQLKK)) | >50 µM | 6.2 to 12.5 µM | 6.2 to 12.5 µM |
| CC(C)C[C@@H]1NC(=O)[C@H](CCCCN)NC(=O)[C@H](CCC(N)=O)NC(=O)[C@H](Cc2ccccc2)NC(=O)[C@H](CCCCN)NC(=O)[C@H](CC(C)C)NC(=O)[C@H](CCCCN)NC(=O)[C@H](CCCCN)NC(=O)[C@H](CCCCN)NC(=O)[C@H](CCCCN)NC1=O [BPC488] (cyclo(FQKLKKKKLK)) | >50 µM | – | 6.2 to 12.5 µM |

Reference: article PMC6152393, “Rational Design of Cyclic Antimicrobial Peptides Based on BPC194 and BPC198” (Molecules : A Journal of Synthetic Chemistry and Natural …, 2017)
